Laboratory results reported in PubChem BioAssay AID1996.
≈ marks a conversion by molar mass, not a printed value.

Conditions: buffer; pH 7.4; 200.0 µM

Q: For `Cc1ccc(N2CCN(C(=S)Nc3ccccc3C)CC2)cc1`, which solubility kinetic is on record?
A: The solubility kinetic was 0.6 µg/mL (≈ 1.84 µM).

Q: For `CN(C)S(=O)(=O)c1cccc(NC(=O)CC23CC4CC(CC(C4)C2)C3)c1`, which solubility kinetic is on record?
A: The solubility kinetic was 10.8 µg/mL (≈ 28.7 µM).

Q: With `NC(=O)c1coc(-c2ccccc2)n1` as the compound, how does the solubility kinetic read?
A: The solubility kinetic was greater than 28.2 µg/mL.

Q: Which solubility kinetic does the source give for `Cc1ccc(NC(=O)C(=O)c2c[nH]c3ccccc23)cc1` here?
A: Its solubility kinetic is less than 0.3 µg/mL.

Q: With `CCN(CC)/C(=N\S(=O)(=O)c1ccc(F)cc1)c1ccccc1` as the compound, how does the solubility kinetic read?
A: The solubility kinetic was greater than 50.2 µg/mL.

Q: For `O=C(Nc1cccc(S(=O)(=O)N2CCCC2)c1)c1ccco1`, which solubility kinetic is on record?
A: Its solubility kinetic is greater than 48.1 µg/mL.

Q: Which solubility kinetic does the source give for `ClCC1=Nc2ccccc2Cc2ccccc21` here?
A: The solubility kinetic was 4.8 µg/mL (≈ 19.9 µM).

Q: Which solubility kinetic does the source give for `CN(Cc1ccccc1)C(=O)N1CCOCC1` here?
A: Its solubility kinetic is greater than 35.1 µg/mL.

Q: With `COc1ccccc1C(=O)CC(=O)C(=O)Nc1cccc([N+](=O)[O-])c1C` as the compound, how does the solubility kinetic read?
A: Its solubility kinetic is 15.5 µg/mL (≈ 43.5 µM).

Q: Which solubility kinetic does the source give for `COc1ccccc1OCCCC(=O)NC(C)c1ccccc1` (stereo not drawn) here?
A: The solubility kinetic was greater than 47 µg/mL.

Q: With `CNC(=O)O/N=C(\N)Cc1csc2ccccc12` as the compound, how does the solubility kinetic read?
A: The solubility kinetic was 39.2 µg/mL (≈ 149 µM).

Q: Which solubility kinetic does the source give for `O=C(Nc1nonc1-c1ccc(Cl)cc1)c1ccco1` here?
A: The solubility kinetic was greater than 43.5 µg/mL.

Q: For `CC(=O)c1ccc(NC(=S)NC(=O)Cc2ccc(Cl)cc2)cc1`, which solubility kinetic is on record?
A: The solubility kinetic was 0.4 µg/mL (≈ 1.15 µM).

Q: Which solubility kinetic does the source give for `O=S(=O)(c1ccc(F)c(F)c1)N1CCN(c2ccccn2)CC1` here?
A: Its solubility kinetic is 1.5 µg/mL (≈ 4.42 µM).

Q: With `O=C(CSc1nnc(-c2ccncc2)o1)N1CCCC1` as the compound, how does the solubility kinetic read?
A: Its solubility kinetic is greater than 43.6 µg/mL.

Q: Which solubility kinetic does the source give for `Cc1ccc(CN2C(=O)C(C)Oc3ccccc32)cc1` (stereo not drawn) here?
A: The solubility kinetic was 4.7 µg/mL (≈ 17.6 µM).

Q: For `O=C(OCc1cc2ccccc2[nH]c1=O)c1cccc([N+](=O)[O-])c1`, which solubility kinetic is on record?
A: The solubility kinetic was 0.8 µg/mL (≈ 2.47 µM).

Q: For `Cc1ccc(NC(=O)NC2CCCCCCC2)cc1`, which solubility kinetic is on record?
A: The solubility kinetic was less than 0.3 µg/mL.

Q: For `O=C(COC(=O)c1cncc(Br)c1)NC12CC3CC(CC(C3)C1)C2`, which solubility kinetic is on record?
A: The solubility kinetic was 1.4 µg/mL (≈ 3.56 µM).

Q: For `Cc1cccc(OCCN2CCOCC2)c1C`, which solubility kinetic is on record?
A: Its solubility kinetic is 24.4 µg/mL (≈ 104 µM).

Q: With `Cc1cc(C)c(S(=O)(=O)NCC(=O)NCc2ccccn2)c(C)c1` as the compound, how does the solubility kinetic read?
A: The solubility kinetic was greater than 52.1 µg/mL.

Q: Which solubility kinetic does the source give for `COC(=O)c1ccc(COc2cc([N+](=O)[O-])cc3cccnc23)o1` here?
A: The solubility kinetic was 3.3 µg/mL (≈ 10.1 µM).

Q: Which solubility kinetic does the source give for `CC(=O)Nc1ccc(SCC(=O)NC(=O)c2ccc(S(=O)(=O)N(C)C)cc2)cc1` here?
A: Its solubility kinetic is greater than 65.3 µg/mL.

Q: Which solubility kinetic does the source give for `O=C(COc1ccc(NC(=O)c2ccccc2)cc1)c1ccccc1` here?
A: The solubility kinetic was 1.1 µg/mL (≈ 3.32 µM).

Q: For `NC(=O)C1CCN(C(=O)c2cc(-c3ccccc3Cl)nc3ccccc23)CC1`, which solubility kinetic is on record?
A: The solubility kinetic was greater than 59.1 µg/mL.

Q: Which solubility kinetic does the source give for `COc1ccc(CNCCc2ccc(Cl)cc2Cl)cc1` here?
A: The solubility kinetic was 2.1 µg/mL (≈ 6.77 µM).

Q: Which solubility kinetic does the source give for `Cc1ccc(S(=O)(=O)N[C@H](C(=O)OCC(=O)NC(=O)C2CCCCC2)C(C)C)cc1` here?
A: Its solubility kinetic is 11.4 µg/mL (≈ 26 µM).

Q: Which solubility kinetic does the source give for `CC(C)(C)c1ccc(NC(=O)c2ccsc2)cc1` here?
A: The solubility kinetic was 1.1 µg/mL (≈ 4.24 µM).

Q: With `O=[N+]([O-])c1ccc(SCc2ccco2)cc1N1CCOCC1` as the compound, how does the solubility kinetic read?
A: The solubility kinetic was 13.2 µg/mL (≈ 41.2 µM).

Q: With `O=C(COc1ccc2c(-c3ccccc3)cc(=O)oc2c1)NC(Cc1c[nH]c2ccccc12)C(=O)O` (stereo not drawn) as the compound, how does the solubility kinetic read?
A: The solubility kinetic was greater than 72.4 µg/mL.

Q: For `CC(=O)c1ccc(OCCCC(=O)NC2CCCCC2C)cc1` (stereo not drawn), which solubility kinetic is on record?
A: Its solubility kinetic is 25.8 µg/mL (≈ 81.3 µM).

Q: For `Cc1cc(C)c(NC(=O)CSc2cccc[n+]2[O-])c(C)c1`, which solubility kinetic is on record?
A: The solubility kinetic was greater than 45.4 µg/mL.

Q: With `O=C(O)c1cc(NC(=O)c2ccco2)cc(NC(=O)c2ccco2)c1` as the compound, how does the solubility kinetic read?
A: Its solubility kinetic is 44.4 µg/mL (≈ 130 µM).

Q: For `CC1CCN(CC(=O)N2c3ccccc3CC2C)CC1.Cl` (stereo not drawn), which solubility kinetic is on record?
A: Its solubility kinetic is greater than 46.3 µg/mL.

Q: With `Cc1cccc(C)c1OCC(=O)Nc1ccc2c(c1)C(=O)NC2=O` as the compound, how does the solubility kinetic read?
A: Its solubility kinetic is 1.2 µg/mL (≈ 3.7 µM).

Q: Which solubility kinetic does the source give for `Cc1ccc(C(=O)Nc2ccc(NC(=O)c3cccs3)cc2)c(C)c1` here?
A: Its solubility kinetic is less than 0.4 µg/mL.

Q: For `COc1ccc2[nH]cc(CCN3C(=O)c4ccc(C(=O)O)cc4C3=O)c2c1`, which solubility kinetic is on record?
A: Its solubility kinetic is greater than 54.7 µg/mL.

Q: For `CC(=O)Nc1ccc(S(=O)(=O)Nc2ccc3ccccc3n2)cc1`, which solubility kinetic is on record?
A: Its solubility kinetic is 14.2 µg/mL (≈ 41.6 µM).

Q: For `Cc1ncc(CN2CCN(CCc3ccccc3)C(CCO)C2)s1` (stereo not drawn), which solubility kinetic is on record?
A: The solubility kinetic was 39.7 µg/mL (≈ 115 µM).

Q: For `CCOc1ccc2nc(SCC(=O)NCC3CCCO3)sc2c1` (stereo not drawn), which solubility kinetic is on record?
A: The solubility kinetic was greater than 52.9 µg/mL.

Q: Which solubility kinetic does the source give for `O=C1C(Cl)=C(N2CCOCC2)C(=O)N1c1ccccc1F` here?
A: The solubility kinetic was 38.7 µg/mL (≈ 125 µM).

Q: For `COc1ccc(OC)c(CCNC(=O)CCc2cn(C)c3ccccc23)c1`, which solubility kinetic is on record?
A: The solubility kinetic was 30.6 µg/mL (≈ 83.5 µM).

Q: For `COc1ccccc1NS(=O)(=O)c1cc(NC(=O)c2cccnc2)ccc1N1CCCCC1`, which solubility kinetic is on record?
A: Its solubility kinetic is 1.3 µg/mL (≈ 2.79 µM).

Q: Which solubility kinetic does the source give for `Cc1cnc(NC(=O)Cc2ccc(S(=O)(=O)N3CCOCC3)s2)s1` here?
A: Its solubility kinetic is 19.7 µg/mL (≈ 50.8 µM).

Q: For `Cc1csc(C(=O)O)c1NC(=O)c1ccc(F)cc1`, which solubility kinetic is on record?
A: Its solubility kinetic is greater than 41.9 µg/mL.

Q: Which solubility kinetic does the source give for `COc1cccc(C2CCCN2Cc2nc(-c3cnccn3)no2)c1` (stereo not drawn) here?
A: The solubility kinetic was 44.9 µg/mL (≈ 133 µM).

Q: For `Cc1ccc(C(O)(CNCc2ccccc2)c2ccccc2)cc1` (stereo not drawn), which solubility kinetic is on record?
A: The solubility kinetic was 26.2 µg/mL (≈ 82.5 µM).

Q: Which solubility kinetic does the source give for `O=C1OCCC1Sc1nnc(-c2ccc3c(c2)OCO3)o1` (stereo not drawn) here?
A: Its solubility kinetic is greater than 45.9 µg/mL.

Q: Which solubility kinetic does the source give for `CCOC(=O)Cc1csc(NC(=O)Nc2ccc(F)cc2)n1` here?
A: Its solubility kinetic is 4.4 µg/mL (≈ 13.6 µM).

Q: For `CCCCOc1ccc(CN2CCSCC2)cc1`, which solubility kinetic is on record?
A: Its solubility kinetic is 14.1 µg/mL (≈ 53.1 µM).

Q: Which solubility kinetic does the source give for `CCOc1ccc(Br)cc1S(=O)(=O)NC1=NCCCCC1` here?
A: Its solubility kinetic is greater than 56.3 µg/mL.

Q: With `CCCCSc1nc2sc3c(c2c(=O)[nH]1)CC(C)(CC)OC3` (stereo not drawn) as the compound, how does the solubility kinetic read?
A: Its solubility kinetic is 0.5 µg/mL (≈ 1.48 µM).

Q: For `O=C(OC(C(=O)c1c[nH]c2ccccc12)c1ccccc1)c1cnccn1` (stereo not drawn), which solubility kinetic is on record?
A: The solubility kinetic was 47 µg/mL (≈ 132 µM).

Q: Which solubility kinetic does the source give for `O=C(CSc1ncnc2ccccc12)NCC(=O)c1ccccc1` here?
A: Its solubility kinetic is 7.1 µg/mL (≈ 21 µM).

Q: For `CCCn1c(=N)n(CC(O)c2ccc(C)cc2)c2ccccc21.Cl` (stereo not drawn), which solubility kinetic is on record?
A: The solubility kinetic was greater than 51.9 µg/mL.

Q: For `CC(C)(C)C(=O)Nc1sc2c(c1C(=O)Nc1ccccn1)CCCC2`, which solubility kinetic is on record?
A: Its solubility kinetic is less than 0.3 µg/mL.

Q: With `COCCNc1ccc(N2C(=O)CCCC2=O)cc1[N+](=O)[O-]` as the compound, how does the solubility kinetic read?
A: Its solubility kinetic is 45.8 µg/mL (≈ 149 µM).

Q: Which solubility kinetic does the source give for `CN1CCN(NC(=O)NC2CCCCC2)CC1` here?
A: The solubility kinetic was greater than 36.1 µg/mL.
